Data reported in the supplement of paper PMC10307832.

How the values were obtained:
Experiment in all cases: relative viability (nuclei count vs DMSO), 5 days (fraction); higher = more cells survive
[1] = compound: O=C(CCCCCCNC(=O)c1cnc(N(c2ccccc2)c2ccccc2)nc1)NO [Ricolinostat] + CCNC(=O)c1noc(-c2cc(C(C)C)c(O)cc2O)c1-c1ccc(CN2CCOCC2)cc1 [Luminespib] (partner 0.01 µM)
Summary of the method: (§1)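 For relative viability, nuclei counts in treated wells were divided by those in vehicle wells. Lung cancer cell lines had been pin-tool dosed in 1536-well plates the day after seeding and cultured for 5 days, then fixed and stained in one step (final 0.05% Triton X-100, 1% formaldehyde, 1 ug/ml Hoechst) and imaged at 4×. Doses were one drug alone or a fixed anchor-drug dose plus five library-drug doses (not always all listed) in √10 steps, and values are duplicate-plate medians.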

[2] = compound: CC1=CN2C(=O)C=C(N=C2C(=C1)C(C)NC3=CC=CC=C3)N4CCOCC4 [TGX 221] + CCNC(=O)c1noc(-c2cc(C(C)C)c(O)cc2O)c1-c1ccc(CN2CCOCC2)cc1 [Luminespib] (partner 0.01 µM)
Summary of the method: as §1

[3] = compound: C1=CC=C(C(=C1)C2=CC=C(C=C2)C3=CSC4=C3C(=C(C(=O)N4)C#N)O)O + Nc1nc2[nH]cc(CCc3ccc(C(=O)N[C@@H](CCC(=O)O)C(=O)O)cc3)c2c(=O)[nH]1 [Pemetrexed] (partner 0.2 µM)
Summary of the method: as §1

[4] = compound: CC1=CN2C(=O)C=C(N=C2C(=C1)C(C)NC3=CC=CC=C3)N4CCOCC4 [TGX 221] + CC(C)C[C@H](NC(=O)[C@H](Cc1ccccc1)NC(=O)c1cnccn1)B(O)O [Bortezomib] (partner 0.002 µM)
Summary of the method: as §1

Cell Line	relative viability ([1]; first compound 0.253 µM)	relative viability ([1]; first compound 0.8 µM)	relative viability ([1]; first compound 2.53 µM)	relative viability ([2]; first compound 0.08 µM)	relative viability ([2]; first compound 0.253 µM)	relative viability ([2]; first compound 0.8 µM)	relative viability ([2]; first compound 2.53 µM)	relative viability ([2]; first compound 8 µM)	relative viability ([3]; first compound 0.08 µM)	relative viability ([3]; first compound 0.253 µM)	relative viability ([3]; first compound 0.8 µM)	relative viability ([3]; first compound 2.53 µM)	relative viability ([3]; first compound 8 µM)	relative viability ([4]; first compound 0.08 µM)	relative viability ([4]; first compound 0.253 µM)	relative viability ([4]; first compound 0.8 µM)	relative viability ([4]; first compound 2.53 µM)	relative viability ([4]; first compound 8 µM)	relative viability ([1]; first compound 0.08 µM)
COR-L 105	0.746	0.765	0.749	0.952	0.792	0.663	0.654	0.579	0.948	1.16	1.1	1.11	1.15	0.832	0.816	1.01	0.698	0.736	
COR-L23	0.571	0.661	0.427	0.666	0.684	0.638	0.797	0.683	0.222	0.228	0.212	0.189	0.19	0.876	0.964	0.928	1.06	1.01	0.518
LXF-289	0.655	0.692	0.672	0.667	0.686	0.77	0.47	0.513	0.818	0.871	0.909	0.926	0.89	1.02	0.979	0.915	0.974	1.06	0.579
PC-14	0.172	0.177	0.169	0.146	0.135	0.138	0.133	0.151	0.151	0.156	0.153	0.125	0.146	0.895	0.89	0.828	0.804	0.874	
